The term IC50 denotes the concentration that inhibits the measured activity by half.

Where two headings read alike, the source gives them in different places.

The test system of assay [1] is A-431. The assay can be described thus: Cell proliferation GI50, A-431 cells (Table 6). The class given is cell-based.
For assay [2], the target named is T1, EGFR Exon19Del (Homo sapiens, UniProt P00533, DEL746-750).
T1 construct: purchased Carna Bio
The experiment in a line: Inhibition of EGFR Exon19Del biochemical enzymatic activity (HTRF). The settings on record: EGFR Del19, 1 mM ATP, 1 h, room temperature, read-out: IC50 @Del19. The method in brief:
(§1)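 Using a high ATP level (1 mM), wild-type and mutant EGFR enzymes were incubated 1 h at room temperature with inhibitor and 1 μM biotinylated TK substrate. Phosphorylation was quantified as the 665/615 nm HTRF ratio. IC50s were derived by logistic fitting.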

Assay [3] has as its target T2, EGFR L858R/T790M (Homo sapiens, UniProt P00533, L858R/T790M).
T2 construct: purchased Carna Bio
The assay can be described thus: Inhibition of EGFR L858R/T790M biochemical enzymatic activity (HTRF). Particulars: EGFR L858R-T790M, 1 mM ATP, 1 h, room temperature, read-out: IC50 (nM) @L858R-T790M. The method in brief: as §1
For orientation: In TR-FRET formats the signal depends on donor and acceptor labels being close together.

Assay [4] concerns the target T3, EGFR wild type (Homo sapiens, UniProt P00533).
T3 construct: purchased Carna Bio
The assay can be described thus: Inhibition of EGFR wild type biochemical enzymatic activity (HTRF). Particulars: EGFR WT, 1 mM ATP, 1 h, room temperature, read-out: IC50 (nM) @WT. The essentials: as §1

For assay [5], the target named is T4, EGFR L858R (Homo sapiens, UniProt P00533, L858R).
T4 construct: purchased Carna Bio
The assay can be described thus: Inhibition of EGFR L858R biochemical enzymatic activity (HTRF). The settings on record: 1 mM ATP, 1 h, room temperature, read-out: IC50 (nM) @L858R. The essentials:
as §1

The test system of assay [6] is Ba/F3 cells expressing EGFR mutations. The experiment in a line: Cell proliferation assay, Ba/F3 cells expressing EGFR mutations (CellTiter-Glo, 72 hours). Format: cell-based. Particulars: CellTiter-Glo. The method in brief:
(§2)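 Ba/F3 cells carrying EGFR mutants (5000/well) or PC-9 cells (500/well) in RPMI1640 were dosed with compound series after overnight attachment and grown 72 h. Viability read by CellTiter-Glo, with day-0 counts subtracted; GI50 from curve fits of % proliferation versus DMSO control.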
A general note: ATP-based viability assays read luminescence as a measure of living cells.

For assay [7], the target named is T5, EGFR[T790M/C797S/d746-750] (Homo sapiens, UniProt P00533, C797S/DEL746-750/T790M).
T5 construct: purchased Carna Bio
The assay can be described thus: Inhibition of EGFR[T790M/C797S/d746-750] biochemical enzymatic activity (HTRF). The settings on record: EGFR T790M-C797S-Del19, 1 mM ATP, 1 h, room temperature, read-out: IC50 (nM) @T790M - C797S - Del19. The method in brief: as §1

Assay [8] concerns the target T6, EGFR[T790M/C797S/L858R] (Homo sapiens, UniProt P00533, C797S/L858R/T790M).
T6 construct: purchased Carna Bio
The experiment in a line: Inhibition of EGFR[T790M/C797S/L858R] biochemical enzymatic activity (HTRF). Particulars: EGFR T790M-C797S-L858R, 1 mM ATP, 1 h, room temperature, read-out: IC50 (nM) @T790M- C797S - L858R. The method in brief:
as §1

Assay [9] has as its target T7, EGFR (C797S L858R) (Homo sapiens, UniProt P00533, C797S/L858R).
T7 construct: purchased signalchem
The assay can be described thus: Inhibition of EGFR (C797S L858R) biochemical enzymatic activity (HTRF). The settings on record: EGFR L858-C797S, 1 mM ATP, 1 h, room temperature, read-out: IC50 (nM) @L858-C797S. The essentials:
as §1

For assay [10], the target named is T8, EGFR Exon19Del/T790M (Homo sapiens, UniProt P00533, DEL746-750/T790M).
T8 construct: purchased Carna Bio
The assay can be described thus: Inhibition of EGFR Exon19Del/T790M biochemical enzymatic activity (HTRF). Particulars: EGFR Del19-T790M, 1 mM ATP, 1 h, room temperature, read-out: IC50 (nM) @Del19-T790M. The method in brief:
as §1

Assay [11] deals with PC-9. The assay can be described thus: Cell proliferation assay, PC-9 cells (CellTiter-Glo, 72 hours). Format: cell-based. Particulars: PC9 cells, CellTiter-Glo, read-out: PC9 GI50. The method in brief:
as §2

In assay [12] the target is T9, EGFR (d746-750 C797S) (Homo sapiens, UniProt P00533, C797S/DEL746-750).
T9 construct: purchased signalchem
The assay can be described thus: Inhibition of EGFR (d746-750 C797S) biochemical enzymatic activity (HTRF). Particulars: EGFR Del19-C797S, 1 mM ATP, 1 h, room temperature, read-out: IC50 (nM) @Del19-C797S. The essentials: as §1

Setting [13] is: BaF3 cells, EGFR DEL19-C797S, read-out: DEL19-C797S/BaF3 GI50.
The mark [14] stands for this setting: BaF3 cells, EGFR DEL19-T790-C797S, read-out: DEL19-T790-C797S/BaF3 GI50.
Where [15] appears, read: BaF3 cells, EGFR L858R, read-out: L858R/BaF3 GI50.
Setting [16] is: BaF3 cells, EGFR L858R-C797S, read-out: L858R-C797S/BaF3 GI50.
Where [17] appears, read: BaF3 cells, EGFR L858R-T790-C797S, read-out: L858R-T790-C797S/BaF3 GI50.
Where [18] appears, read: BaF3 cells, EGFR L858R-T790M, read-out: L858R-T790M/BaF3 GI50.
Setting [19] is: EGFR DEL19-T790M, read-out: DEL19-T790M GI50.

T1 sequence (P00533 with tags, fused parts or gaps DEL746-750 limits assumed): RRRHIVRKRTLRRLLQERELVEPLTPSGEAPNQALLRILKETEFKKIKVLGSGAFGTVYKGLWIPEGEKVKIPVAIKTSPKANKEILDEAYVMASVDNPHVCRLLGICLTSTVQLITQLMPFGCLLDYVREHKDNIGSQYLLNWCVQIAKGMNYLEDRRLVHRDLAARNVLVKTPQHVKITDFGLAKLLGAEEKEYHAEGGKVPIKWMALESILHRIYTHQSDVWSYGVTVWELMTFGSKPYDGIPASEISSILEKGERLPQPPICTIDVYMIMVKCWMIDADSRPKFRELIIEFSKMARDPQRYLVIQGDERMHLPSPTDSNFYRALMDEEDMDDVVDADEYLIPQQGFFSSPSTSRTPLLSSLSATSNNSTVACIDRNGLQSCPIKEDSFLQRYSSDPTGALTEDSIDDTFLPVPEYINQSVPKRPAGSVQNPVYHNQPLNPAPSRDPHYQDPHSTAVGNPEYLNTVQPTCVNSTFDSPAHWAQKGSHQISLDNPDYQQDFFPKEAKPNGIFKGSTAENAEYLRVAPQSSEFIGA
T7 sequence (P00533 25-1210 C797S/L858R): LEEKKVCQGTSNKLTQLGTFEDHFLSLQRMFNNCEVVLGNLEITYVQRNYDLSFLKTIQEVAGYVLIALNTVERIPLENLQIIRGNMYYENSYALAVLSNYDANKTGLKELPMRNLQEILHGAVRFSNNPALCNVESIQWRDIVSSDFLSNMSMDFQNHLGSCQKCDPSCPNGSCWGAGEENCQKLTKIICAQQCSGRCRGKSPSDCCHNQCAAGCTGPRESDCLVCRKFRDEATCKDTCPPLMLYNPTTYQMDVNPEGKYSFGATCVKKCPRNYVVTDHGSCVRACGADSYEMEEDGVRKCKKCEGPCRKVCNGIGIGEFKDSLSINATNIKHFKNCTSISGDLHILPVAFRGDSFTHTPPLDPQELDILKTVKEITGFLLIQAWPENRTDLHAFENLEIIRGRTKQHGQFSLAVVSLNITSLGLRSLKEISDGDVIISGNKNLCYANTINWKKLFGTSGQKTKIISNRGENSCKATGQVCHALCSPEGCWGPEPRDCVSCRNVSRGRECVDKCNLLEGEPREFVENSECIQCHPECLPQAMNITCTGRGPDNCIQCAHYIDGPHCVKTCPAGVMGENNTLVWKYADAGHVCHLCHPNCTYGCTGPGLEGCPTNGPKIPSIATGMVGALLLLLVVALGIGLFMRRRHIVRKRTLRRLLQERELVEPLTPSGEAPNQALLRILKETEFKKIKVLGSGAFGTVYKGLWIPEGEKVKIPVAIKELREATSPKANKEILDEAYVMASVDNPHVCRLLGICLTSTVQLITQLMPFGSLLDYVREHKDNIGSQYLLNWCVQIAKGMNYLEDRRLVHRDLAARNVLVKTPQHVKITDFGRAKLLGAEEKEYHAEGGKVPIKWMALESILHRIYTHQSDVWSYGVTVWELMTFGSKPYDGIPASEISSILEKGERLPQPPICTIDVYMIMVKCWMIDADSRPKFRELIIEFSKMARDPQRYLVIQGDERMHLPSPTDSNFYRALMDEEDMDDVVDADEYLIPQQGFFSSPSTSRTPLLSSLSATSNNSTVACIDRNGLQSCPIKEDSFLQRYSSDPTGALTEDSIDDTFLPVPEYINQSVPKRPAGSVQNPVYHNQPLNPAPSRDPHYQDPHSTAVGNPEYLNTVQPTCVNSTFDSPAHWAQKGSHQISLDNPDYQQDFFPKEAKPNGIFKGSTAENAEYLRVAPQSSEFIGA
T3 sequence (P00533 25-1210): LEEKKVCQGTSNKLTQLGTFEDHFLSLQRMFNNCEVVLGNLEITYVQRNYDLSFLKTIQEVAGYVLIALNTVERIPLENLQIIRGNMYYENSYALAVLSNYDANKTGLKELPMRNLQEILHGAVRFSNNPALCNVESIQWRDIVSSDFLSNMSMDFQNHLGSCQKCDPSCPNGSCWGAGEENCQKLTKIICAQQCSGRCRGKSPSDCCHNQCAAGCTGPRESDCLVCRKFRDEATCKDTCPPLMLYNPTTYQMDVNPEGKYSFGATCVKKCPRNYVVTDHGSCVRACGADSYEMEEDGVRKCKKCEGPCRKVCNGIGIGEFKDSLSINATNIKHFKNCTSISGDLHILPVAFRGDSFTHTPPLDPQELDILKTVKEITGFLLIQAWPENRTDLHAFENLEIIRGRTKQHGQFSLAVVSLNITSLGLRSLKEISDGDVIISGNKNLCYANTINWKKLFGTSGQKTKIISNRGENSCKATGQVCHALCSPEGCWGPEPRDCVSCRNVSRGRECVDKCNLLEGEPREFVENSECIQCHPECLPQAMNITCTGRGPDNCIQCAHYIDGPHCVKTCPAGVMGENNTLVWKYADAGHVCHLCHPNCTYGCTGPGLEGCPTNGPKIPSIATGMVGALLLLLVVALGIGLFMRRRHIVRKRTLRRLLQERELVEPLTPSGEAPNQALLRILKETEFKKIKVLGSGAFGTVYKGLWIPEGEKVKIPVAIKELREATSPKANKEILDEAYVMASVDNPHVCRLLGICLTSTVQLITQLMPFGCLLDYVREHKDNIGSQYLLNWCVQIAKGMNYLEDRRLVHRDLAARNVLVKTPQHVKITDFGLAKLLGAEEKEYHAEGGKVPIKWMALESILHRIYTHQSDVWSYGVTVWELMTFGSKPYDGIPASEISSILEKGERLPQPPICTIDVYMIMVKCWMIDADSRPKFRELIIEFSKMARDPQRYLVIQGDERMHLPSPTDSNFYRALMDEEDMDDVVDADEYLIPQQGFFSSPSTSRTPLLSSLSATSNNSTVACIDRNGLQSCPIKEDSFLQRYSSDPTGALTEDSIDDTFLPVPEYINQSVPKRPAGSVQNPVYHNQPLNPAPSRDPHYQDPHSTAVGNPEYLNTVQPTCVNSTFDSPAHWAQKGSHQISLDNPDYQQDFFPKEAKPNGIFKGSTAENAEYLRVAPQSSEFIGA
T6 sequence (P00533 25-1210 T790M/C797S/L858R): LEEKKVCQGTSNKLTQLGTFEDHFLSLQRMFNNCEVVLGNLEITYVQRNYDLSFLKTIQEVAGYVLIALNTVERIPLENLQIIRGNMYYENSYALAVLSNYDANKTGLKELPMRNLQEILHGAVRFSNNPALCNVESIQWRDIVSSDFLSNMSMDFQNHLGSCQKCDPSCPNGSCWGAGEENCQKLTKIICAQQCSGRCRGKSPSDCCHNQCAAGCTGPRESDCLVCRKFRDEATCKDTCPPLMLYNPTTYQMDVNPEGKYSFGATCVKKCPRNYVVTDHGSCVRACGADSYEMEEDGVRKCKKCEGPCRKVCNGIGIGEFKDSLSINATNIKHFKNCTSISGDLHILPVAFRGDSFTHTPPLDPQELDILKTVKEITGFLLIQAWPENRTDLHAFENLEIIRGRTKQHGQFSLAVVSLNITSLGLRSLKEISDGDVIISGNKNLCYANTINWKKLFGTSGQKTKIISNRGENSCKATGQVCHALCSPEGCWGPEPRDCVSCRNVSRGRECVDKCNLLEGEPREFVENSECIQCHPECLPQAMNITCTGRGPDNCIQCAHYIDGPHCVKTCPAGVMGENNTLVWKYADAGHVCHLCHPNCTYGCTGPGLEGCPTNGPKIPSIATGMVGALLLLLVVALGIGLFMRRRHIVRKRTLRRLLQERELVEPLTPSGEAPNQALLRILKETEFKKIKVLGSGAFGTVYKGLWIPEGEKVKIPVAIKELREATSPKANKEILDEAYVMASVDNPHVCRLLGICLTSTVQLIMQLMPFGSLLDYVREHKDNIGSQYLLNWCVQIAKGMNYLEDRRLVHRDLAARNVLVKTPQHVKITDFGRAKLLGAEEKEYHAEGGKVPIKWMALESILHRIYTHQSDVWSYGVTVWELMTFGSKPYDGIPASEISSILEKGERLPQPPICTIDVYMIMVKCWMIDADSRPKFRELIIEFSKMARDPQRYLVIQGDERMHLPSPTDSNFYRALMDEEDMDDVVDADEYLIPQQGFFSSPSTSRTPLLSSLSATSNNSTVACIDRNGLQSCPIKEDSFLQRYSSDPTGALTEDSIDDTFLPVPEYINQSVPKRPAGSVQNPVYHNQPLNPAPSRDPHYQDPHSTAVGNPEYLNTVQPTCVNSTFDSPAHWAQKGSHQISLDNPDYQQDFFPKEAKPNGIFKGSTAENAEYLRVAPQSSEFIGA
T5 sequence (P00533 with tags, fused parts or gaps DEL746-750/T790M/C797S limits assumed): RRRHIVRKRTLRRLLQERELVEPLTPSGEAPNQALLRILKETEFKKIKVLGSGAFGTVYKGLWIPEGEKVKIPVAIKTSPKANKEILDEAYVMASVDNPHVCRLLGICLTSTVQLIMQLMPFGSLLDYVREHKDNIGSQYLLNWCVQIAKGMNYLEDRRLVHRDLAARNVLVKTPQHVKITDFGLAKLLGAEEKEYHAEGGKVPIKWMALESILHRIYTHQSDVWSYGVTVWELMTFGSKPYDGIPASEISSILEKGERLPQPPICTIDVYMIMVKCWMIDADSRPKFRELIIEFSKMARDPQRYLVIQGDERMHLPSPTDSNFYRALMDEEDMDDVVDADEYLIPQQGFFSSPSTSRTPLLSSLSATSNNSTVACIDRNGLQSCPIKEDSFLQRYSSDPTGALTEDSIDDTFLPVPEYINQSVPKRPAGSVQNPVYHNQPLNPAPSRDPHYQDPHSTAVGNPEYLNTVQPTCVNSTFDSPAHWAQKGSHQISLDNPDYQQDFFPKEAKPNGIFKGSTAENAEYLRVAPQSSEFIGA

Turning to `CN(C)[C@@H]1CCN(c2ccc3nc4n(c3c2)C23CCC(CN(CCOc5c(cnn5C)-c5cc(cn(C)c5=O)C(=O)N4)C2)C3)C1` (single isomer, unassigned) [Example A66D], the GI50 in assay [1] (Homo sapiens, A-431, A-431 cells) turned out to be 473 nM; in assay [6] (setting [13]), 0.68 nM; in [6] (setting [14]), 1.5 nM; in assay [6] (setting [15]) it was 1.7 nM; in assay [6] (setting [16]) it was 3.2 nM; in assay [6] (setting [17]) it was 1.4 nM. Also, the GI50 stood at 7.2 nM in [6] (setting [18]), 2 nM in assay [6] (setting [19]) and 4.2 nM in [11]. For the same molecule, the IC50 in assay [2] came to 2.7 nM; in assay [3], 1.7 nM; in [4], 18 nM; in [5], 3.7 nM; in assay [7] it was 1.6 nM; in assay [8], 2.1 nM. For the same molecule, the values for the IC50 in [9], in assay [10] and in [12] were 3.7 nM, 2 nM and 1.1 nM, respectively.

As for `CN1CCC12CCN(c1ccc3nc4n(c3c1)C13CCC(CN(CCOc5c(cnn5C)-c5cc(cn(C)c5=O)C(=O)N4)C1)C3)CC2` (single isomer, unassigned) [Example A67A], the GI50 in assay [1] (A-431 cells) came to 6350 nM; in assay [6] (setting [13]), 133 nM; in assay [6] (setting [14]) it was 374 nM; in assay [6] (setting [15]) it was 530 nM; in assay [6] (setting [16]), 382 nM; in [6] (setting [17]), 258 nM. The GI50 in assay [6] (setting [18]) stood at 1040 nM; in [6] (setting [19]), 463 nM; in assay [11], 307 nM. For the same molecule, the IC50 in assay [2] was 1020 nM; in assay [3], > 5000 nM; in assay [4], > 5000 nM; in assay [5] it was > 5000 nM; in assay [7], 1640 nM; in assay [8], > 5000 nM. Besides, the results for the IC50 in [9], in assay [10] and in assay [12] were > 5000 nM, 4070 nM and 1080 nM, respectively.

With `CN1CCC12CCN(c1ccc3nc4n(c3c1)C13CCC(CN(CCOc5c(cnn5C)-c5cc(cn(C)c5=O)C(=O)N4)C1)C3)CC2` (single isomer, unassigned) [Example A67B], the GI50 in assay [1] (A-431 cells) was found to be 712 nM; in [6] (setting [13]), 0.64 nM; in assay [6] (setting [14]) it was 0.92 nM; in [6] (setting [15]) it was 0.79 nM; in assay [6] (setting [16]), 1.9 nM; in assay [6] (setting [17]) it was 0.84 nM. Further, the values for the GI50 in assay [6] (setting [18]), in assay [6] (setting [19]) and in assay [11] were 3.5 nM, 1 nM and 2.5 nM, respectively. The half-maximal inhibitory concentration (IC50) in assay [2] came out at 0.65 nM; in [3] it was 1.1 nM; in assay [4], 2.1 nM; in [5], 1.1 nM; in assay [7] it was 1.2 nM; in assay [8], 1.1 nM. Further, the IC50 in [9] is 1.2 nM; in assay [10] it was 1.3 nM; in assay [12] it was 0.48 nM.

Regarding `CN1CC2CN(c3ccc4nc5n(c4c3)C34CCC(CN(CCOc6c(cnn6C)-c6cc(cn(C)c6=O)C(=O)N5)C3)C4)CC2C1` (single isomer, unassigned) [Example A68B], the GI50 was 284 nM in [1] (A-431 cells); 0.66 nM in assay [6] (setting [13]); 1.3 nM in assay [6] (setting [14]); 2.1 nM in assay [6] (setting [15]); 2.8 nM in assay [6] (setting [16]); 1.3 nM in assay [6] (setting [17]). Also, the GI50 in [6] (setting [18]) is 9.6 nM; in assay [6] (setting [19]) it was 1.8 nM; in [11] it was 3.5 nM. Further, the IC50 in assay [2] came to 1.2 nM; in [3], 1.8 nM; in assay [4], 8.9 nM; in [5], 2.9 nM; in assay [7], 1.8 nM; in assay [8], 1.8 nM. For the same molecule, the IC50 in [9] worked out at 3.1 nM; in assay [10] it was 1.8 nM; in assay [12], 0.95 nM.

As for `Cn1ncc2c1OCCN1CC3CCC(C3)(C1)n1c(nc3ccc(N4CC(N5CCOCC5)C4)cc31)NC(=O)c1cc-2c(=O)n(C)c1` (single isomer, unassigned) [Example A69A], the GI50 worked out at 9380 nM in [1] (A-431 cells); 227 nM in [6] (setting [13]); 366 nM in [6] (setting [14]); 643 nM in assay [6] (setting [15]); 598 nM in [6] (setting [16]); 503 nM in assay [6] (setting [17]). The values for the GI50 in [6] (setting [18]), in [6] (setting [19]) and in assay [11] were 1530 nM, 465 nM and 723 nM, respectively. Besides, the IC50 in assay [2] was 1200 nM; in assay [3] it was > 5000 nM; in [4] it was > 5000 nM; in [5], > 5000 nM; in [7] it was > 5000 nM; in assay [8] it was > 5000 nM. For the same molecule, the IC50 in assay [9] is > 5000 nM; in assay [10], > 5000 nM; in [12], 1780 nM.

Consider `Cn1ncc2c1OCCN1CC3CCC(C3)(C1)n1c(nc3ccc(N4CC(N5CCOCC5)C4)cc31)NC(=O)c1cc-2c(=O)n(C)c1` (single isomer, unassigned) [Example A69B], for which the GI50 in [1] (A-431 cells) amounted to 776 nM; in [6] (setting [13]), 0.62 nM; in assay [6] (setting [14]), 1.3 nM; in assay [6] (setting [15]) it was 2.9 nM; in assay [6] (setting [16]), 3.6 nM; in assay [6] (setting [17]), 2 nM. For the same molecule, the GI50 turned out to be 10 nM in [6] (setting [18]), 2 nM in [6] (setting [19]) and 4.9 nM in [11]. The IC50 came out at 2.9 nM in assay [2]; 2.8 nM in assay [3]; 291 nM in assay [4]; 22 nM in [5]; 2.2 nM in [7]; 3 nM in [8]. In addition, the IC50 is 14 nM in assay [9], 2 nM in assay [10] and 1.2 nM in assay [12].

In the case of `CN1CCN(C2CN(c3ccc4nc5n(c4c3)C34CCC(CN(CCOc6c(cnn6C)-c6cc(cn(C)c6=O)C(=O)N5)C3)C4)C2)CC1` (single isomer, unassigned) [Example A70B], the GI50 in assay [1] (A-431 cells) is 744 nM; in assay [6] (setting [13]), 0.66 nM; in assay [6] (setting [14]), 1 nM; in assay [6] (setting [15]) it was 0.76 nM; in assay [6] (setting [16]) it was 2.7 nM; in [6] (setting [17]), 0.91 nM. Besides, the GI50 stood at 5.9 nM in [6] (setting [18]), 1.6 nM in assay [6] (setting [19]) and 2.7 nM in [11]. Also, the IC50 in assay [2] stood at 1.6 nM; in assay [3], 1.8 nM; in assay [4] it was 19 nM; in assay [5], 4.7 nM; in assay [7], 2.1 nM; in assay [8] it was 2.1 nM. Moreover, the IC50 in [9] came to 3.6 nM; in assay [10], 1.9 nM; in [12], 0.91 nM.

Source of the values: patent US20260365670A1, “EGFR INHIBITORS AND USES THEREOF” (DIZAL (JIANGSU) PHARMACEUTICAL CO., LTD., priority 2022, published 2026).
